Laboratory results as given in patent publication US20250011300A1, “PIPERAZINYLSULFONYLARYL COMPOUNDS FOR TREATMENT OF BACTERIAL INFECTIONS” (Hoffmann-La Roche Inc., priority 2021, published 2025).
≈ marks a conversion by molar mass, not a printed value.

Assays:
E. coli (ATCC 25922) = experiment: Minimal Inhibitory Concentration (MIC) assay, E. coli; type: cell-based; conditions: Escherichia coli, ATCC25922; E. coli ATCC 25922, CAMHB, 20 hours at 35° C.; read-out: MIC E. coli ATCC 25922
Method in brief: (§1)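 Broth microdilution in cation-adjusted Mueller Hinton broth, inoculum 5×10^5 CFU/mL, compounds 2-fold serially diluted from 10 mM DMSO stocks. Plates incubated 20 hours at 35° C in ambient air; MIC (μg/mL) is the lowest concentration preventing visible growth.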

[1] = molecular target: Escherichia coli LpxH (UDP-2,3-diacylglucosamine hydrolase) (Escherichia coli (strain K12), UniProt P43341); experiment: 50% Inhibitory Concentration (IC50) to LpxH, UMP/CMP-Glo Glycosyltransferase Assay kit; type: biochemical
Description: Example 121: 50% Inhibitory Concentration (IC50) to UDP-2,3-diacylglucosamine hydrolase (LpxH)
The inhibitory potency of molecules to UDP-2,3-diacylglucosamine hydrolase (LpxH) was determined using the UMP/CMP-Glo™ Glycosyltransferase Assay kit. LpxH hydrolyzes the pyrophosphate bond of UDP-2,3-diacylglucosamine (UDP-DAG) to yield 2,3-diacylglucosamine 1-phosphate (lipid X) and UMP. The assay kit could quantify the UMP production by convert the UMP to ATP and generate light in a luciferase reaction. The compound's effect on the LpxH activity is detected by measuring the light using a luminometer (Envision).

[2] = tested on: K. pneumonia (ATCC 43816); experiment: Minimal Inhibitory Concentration (MIC) assay, K. pneumonia; type: cell-based; conditions: Klebsiella pneumoniae; K. pneumoniae ATCC43816, CAMHB, 20 hours at 35° C.; read-out: MIC K. pneumoniae ATCC43816
Method in brief: as §1

Escherichia coli LpxH (UDP-2,3-diacylglucosamine hydrolase), sequence (P43341 whole entry): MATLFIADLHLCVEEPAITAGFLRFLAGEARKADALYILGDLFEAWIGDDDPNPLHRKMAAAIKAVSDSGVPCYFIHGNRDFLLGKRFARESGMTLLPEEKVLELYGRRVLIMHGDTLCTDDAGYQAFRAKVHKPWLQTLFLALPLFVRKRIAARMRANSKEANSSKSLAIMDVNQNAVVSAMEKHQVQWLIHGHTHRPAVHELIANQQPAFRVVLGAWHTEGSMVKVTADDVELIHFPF

Structure (SMILES) | MIC (E. coli (ATCC 25922)) [µg/mL] | IC50 [1] [nM] | MIC [2] [µg/mL]
O=C1O[C@@H]2CCNC[C@@H]2N1c1ccc(S(=O)(=O)N2CCN(c3cc(C(F)(F)F)cc(Cl)n3)CC2)cc1 [Example 18, (3aS,7aR)-3-[4-[4-[6-chloro-4-(trifluoromethyl)-2-pyridyl]piperazin-1-yl]sulfonylphenyl]-3a,4,5,6,7,7a-hexahydrooxazolo[4,5-c]pyridin-2-one] | 0.91 (≈ 1.67 µM) | 152 | 0.91 (≈ 1.67 µM)
NCCC1CN(c2ccc(S(=O)(=O)N3CCN(c4cc(C(F)(F)F)cc(Cl)n4)CC3)cc2)C(=O)O1 (stereo not drawn) [Example 9, 5-(2-Aminoethyl)-3-[4-[4-[6-chloro-4-(trifluoromethyl)-2-pyridyl]piperazin-1-yl]sulfonylphenyl]oxazolidin-2-one] | 1.78 (≈ 3.33 µM) | 24.3 | 3.57 (≈ 6.69 µM)
N[C@@H]1CC(=O)N(c2ccc(S(=O)(=O)N3CCN(c4cc(C(F)(F)[C@@H]5CCCNC5)cc(Cl)n4)CC3)cc2)C1 [Example 107, (4R)-4-amino-1-[4-[4-[6-chloro-4-[difluoro-[(3R)-3-piperidyl]methyl]-2-pyridyl]piperazin-1-yl]sulfonylphenyl]pyrrolidin-2-one] | 2.85 (≈ 5.01 µM) | 19.3 | 5.7 (≈ 10 µM)
NC1CCN(c2ccc(S(=O)(=O)N3CCN(c4cc(C(F)(F)F)cc(Cl)n4)CC3)cc2)C1=O (stereo not drawn) [Example 8, 3-Amino-1-[4-[4-[6-chloro-4-(trifluoromethyl)-2-pyridyl]piperazin-1-yl]sulfonylphenyl]pyrrolidin-2-one] | 3.86 (≈ 7.66 µM) | 117 | 7.72 (≈ 15.3 µM)
O=C1CC(NC2CCNC2)CN1c1ccc(S(=O)(=O)N2CCN(c3cc(C(F)(F)F)cc(Cl)n3)CC2)cc1 (stereo not drawn) [Example 59, 1-[4-[4-[6-Chloro-4-(trifluoromethyl)-2-pyridyl]piperazin-1-yl]sulfonylphenyl]-4-(pyrrolidin-3-ylamino)pyrrolidin-2-one] | 3.81 (≈ 6.65 µM) | 96 | 7.62 (≈ 13.3 µM)
O=C1O[C@@H]2CCCNC[C@@H]2N1c1ccc(S(=O)(=O)N2CCN(c3cc(C(F)(F)F)cc(Cl)n3)CC2)cc1 [Example 19, (3aS,8aR)-3-[4-[4-[6-chloro-4-(trifluoromethyl)-2-pyridyl]piperazin-1-yl]sulfonylphenyl]-4,5,6,7,8,8a-hexahydro-3aH-oxazolo[4,5-c]azepin-2-one] | 1.05 (≈ 1.88 µM) | 33.9 | 1.05 (≈ 1.88 µM)
N#CC1(c2cc(Cl)nc(N3CCN(S(=O)(=O)c4ccc(N5CC(N)CC5=O)cc4)CC3)c2)CC1 (stereo not drawn) [Example 71, 1-[2-[4-[4-(4-Amino-2-oxo-pyrrolidin-1-yl)phenyl]sulfonylpiperazin-1-yl]-6-chloro-4-pyridyl]cyclopropanecarbonitrile] | 12.5 (≈ 25 µM) | 591 | 12.5 (≈ 25 µM)
O=C1CC2(CCNCC2)CN1c1ccc(S(=O)(=O)N2CCN(c3cc(C(F)(F)F)cc(Cl)n3)CC2)cc1 [Example 11, 2-[4-[4-[6-Chloro-4-(trifluoromethyl)-2-pyridyl]piperazin-1-yl]sulfonylphenyl]-2,8-diazaspiro[4.5]decan-3-one] | 2.1 (≈ 3.76 µM) | 23.3 | 4.2 (≈ 7.53 µM)
O=C1OC(CN2CCNCC2)CN1c1ccc(S(=O)(=O)N2CCN(c3cc(C(F)(F)F)cc(Cl)n3)CC2)cc1 (stereo not drawn) [Example 29, 3-[4-[4-[6-Chloro-4-(trifluoromethyl)-2-pyridyl]piperazin-1-yl]sulfonylphenyl]-5-(piperazin-1-ylmethyl)oxazolidin-2-one] | 1.96 (≈ 3.33 µM) | 25.5 | 1.96 (≈ 3.33 µM)
NCC1CN(C2CC(=O)N(c3ccc(S(=O)(=O)N4CCN(c5cc(C(F)(F)F)cc(Cl)n5)CC4)cc3)C2)C1 (stereo not drawn) [Example 49, 4-[3-(Aminomethyl)azetidin-1-yl]-1-[4-[4-[6-chloro-4-(trifluoromethyl)-2-pyridyl]piperazin-1-yl]sulfonylphenyl]pyrrolidin-2-one] | 3.87 (≈ 6.75 µM) | 82 | 7.74 (≈ 13.5 µM)
NCC1COC(=O)N1c1ccc(S(=O)(=O)N2CCN(c3cc(C(F)(F)F)cc(Cl)n3)CC2)cc1 (stereo not drawn) [Example 6, 4-(Aminomethyl)-3-[4-[4-[6-chloro-4-(trifluoromethyl)-2-pyridyl]piperazin-1-yl]sulfonylphenyl]oxazolidin-2-one] | 1.98 (≈ 3.81 µM) | 44.2 | 1.98 (≈ 3.81 µM)
NC1(C2CN(CC3CC(=O)N(c4ccc(S(=O)(=O)N5CCN(c6cc(C(F)(F)F)cc(Cl)n6)CC5)cc4)C3)C2)CC1 (stereo not drawn) [Example 39, 4-[[3-(1-Aminocyclopropyl)azetidin-1-yl]methyl]-1-[4-[4-[6-chloro-4-(trifluoromethyl)-2-pyridyl]piperazin-1-yl]sulfonylphenyl]pyrrolidin-2-one] | 0.96 (≈ 1.57 µM) | 13 | 1.92 (≈ 3.13 µM)
NCC1CN(CC2CN(c3ccc(S(=O)(=O)N4CCN(c5cc(C(F)(F)F)cc(Cl)n5)CC4)cc3)C(=O)O2)C1 (stereo not drawn) [Example 33, 5-[[3-(Aminomethyl)azetidin-1-yl]methyl]-3-[4-[4-[6-chloro-4-(trifluoromethyl)-2-pyridyl]piperazin-1-yl]sulfonylphenyl]oxazolidin-2-one] | 1.1 (≈ 1.87 µM) | 15.3 | 2.2 (≈ 3.73 µM)
O=C1CC(N2CCN[C@@H](CO)C2)CN1c1ccc(S(=O)(=O)N2CCN(c3cc(C(F)(F)F)cc(Cl)n3)CC2)cc1 (stereo partly drawn) [Example 54, 1-[4-[4-[6-Chloro-4-(trifluoromethyl)-2-pyridyl]piperazin-1-yl]sulfonylphenyl]-4-[(3R)-3-(hydroxymethyl)piperazin-1-yl]pyrrolidin-2-one] | 2 (≈ 3.32 µM) | 19.9 | 4 (≈ 6.63 µM)
NC1CC(=O)N(c2ccc(S(=O)(=O)N3CCN(c4cc(C(F)(F)c5cccnc5)cc(Cl)n4)CC3)cc2)C1 (stereo not drawn) [Example 90, 4-Amino-1-[4-[4-[6-chloro-4-[difluoro(3-pyridyl)methyl]-2-pyridyl]piperazin-1-yl]sulfonylphenyl]pyrrolidin-2-one] | 1.76 (≈ 3.13 µM) | 12.4 | 1.76 (≈ 3.13 µM)
NC(=O)[C@H]1CC[C@H](C(F)(F)c2cc(Cl)nc(N3CCN(S(=O)(=O)c4ccc(N5C[C@H](N)CC5=O)cc4)CC3)c2)CC1 [Example 120, Trans-4-[[2-[4-[4-[(4R)-4-amino-2-oxo-pyrrolidin-1-yl]phenyl]sulfonylpiperazin-1-yl]-6-chloro-4-pyridyl]-difluoro-methyl]cyclohexanecarboxamide] | 0.96 (≈ 1.57 µM) | < 3.27 | 0.48 (≈ 0.785 µM)
CNCC1CN(c2ccc(S(=O)(=O)N3CCN(c4cc(C(F)(F)F)cc(Cl)n4)CC3)cc2)C(=O)O1 (stereo not drawn) [Example 27, 3-[4-[4-[6-Chloro-4-(trifluoromethyl)-2-pyridyl]piperazin-1-yl]sulfonylphenyl]-5-(methylaminomethyl)oxazolidin-2-one] | 1.78 (≈ 3.33 µM) | 22.5 | 3.57 (≈ 6.69 µM)
NC1CC(=O)N(c2ccc(S(=O)(=O)N3CCN(c4cc(C(F)F)cc(Cl)n4)CC3)cc2)C1 (stereo not drawn) [Example 68, 4-Amino-1-[4-[4-[6-chloro-4-(difluoromethyl)-2-pyridyl]piperazin-1-yl]sulfonylphenyl]pyrrolidin-2-one] | 2.59 (≈ 5.33 µM) | 259 | 10.3 (≈ 21.3 µM)
NCC1CC(=O)N(c2ccc(S(=O)(=O)N3CCN(c4cc(C(F)(F)F)cc(Cl)n4)CC3)cc2)C1 (stereo not drawn) [Example 2, 4-(Aminomethyl)-1-[4-[4-[6-chloro-4-(trifluoromethyl)-2-pyridyl]piperazin-1-yl]sulfonyl-phenyl]pyrrolidin-2-one] | 1.98 (≈ 3.82 µM) | 84.9 | 3.95 (≈ 7.63 µM)
NC1CC(=O)N(c2ccc(S(=O)(=O)N3CCN(c4cc(Oc5ccccc5)cc(Cl)n4)CC3)cc2)C1 (stereo not drawn) [Example 72, 4-Amino-1-[4-[4-(6-chloro-4-phenoxy-2-pyridyl)piperazin-1-yl]sulfonylphenyl]pyrrolidin-2-one] | 7.06 (≈ 13.4 µM) | 407 | 7.06 (≈ 13.4 µM)
NCCN1CCC2(CC1)CN(c1ccc(S(=O)(=O)N3CCN(c4cc(C(F)(F)F)cc(Cl)n4)CC3)cc1)C(=O)O2 [Example 24, 8-(2-Aminoethyl)-3-[4-[4-[6-chloro-4-(trifluoromethyl)-2-pyridyl]piperazin-1-yl]sulfonylphenyl]-1-oxa-3,8-diazaspiro[4.5]decan-2-one] | 2.24 (≈ 3.71 µM) | 14.9 | 2.24 (≈ 3.71 µM)
NCC1CN(c2ccc(S(=O)(=O)N3CCN(c4cc(C(F)(F)F)cc(Cl)n4)CC3)cc2)C(=O)O1 (stereo not drawn) [Example 3, 5-(Aminomethyl)-3-[4-[4-[6-chloro-4-(trifluoromethyl)-2-pyridyl]piperazin-1-yl]sulfonylphenyl]oxazolidin-2-one] | 3.96 (≈ 7.62 µM) | 460 | 1.98 (≈ 3.81 µM)
NC1CC(=O)N(c2ccc(S(=O)(=O)N3CCN(c4cc(C(F)(F)C5CCCOC5)cc(Cl)n4)CC3)cc2)C1 (stereo not drawn) [Example 99, 4-Amino-1-[4-[4-[6-chloro-4-[difluoro(tetrahydropyran-3-yl)methyl]-2-pyridyl]piperazin-1-yl]sulfonylphenyl]pyrrolidin-2-one] | 4.01 (≈ 7.03 µM) | < 3.51 | 0.89 (≈ 1.56 µM)
N[C@@H]1CC(=O)N(c2ccc(S(=O)(=O)N3CCN(c4cc(C(F)(F)C5CNC5)cc(Cl)n4)CC3)cc2)C1 [Example 109, (4R)-4-amino-1-[4-[4-[4-[azetidin-3-yl(difluoro)methyl]-6-chloro-2-pyridyl]piperazin-1-yl]sulfonylphenyl]pyrrolidin-2-one] | 16.4 (≈ 30.3 µM) | 68.4 | 16.4 (≈ 30.3 µM)
